Experimental data taken from ChEMBL document CHEMBL4507290 (2021).

Key:
[1] = target: Ribosomal protein S6 kinase alpha-5 (Homo sapiens) (UniProt O75582); settings: Compound concentration 1000.0 nM
[2] = target: Serine/threonine-protein kinase TAO2 (Homo sapiens) (UniProt Q9UL54); settings: Compound concentration 1000.0 nM
[3] = target: Casein kinase II subunit alpha' (Homo sapiens) (UniProt P19784); settings: Compound concentration 1000.0 nM
[4] = target: Serine/threonine-protein kinase 32C (Homo sapiens) (UniProt Q86UX6); settings: Compound concentration 1000.0 nM
[5] = target: Serine/threonine-protein kinase NIM1 (Homo sapiens) (UniProt Q8IY84); settings: Compound concentration 1000.0 nM
[6] = target: 3-phosphoinositide-dependent protein kinase 1 (Homo sapiens) (UniProt O15530); settings: Compound concentration 1000.0 nM
[7] = system: Epidermal growth factor receptor (Homo sapiens), P00533 [L858R]; settings: Compound concentration 1000.0 nM
[8] = target: Tyrosine-protein kinase Yes (Homo sapiens) (UniProt P07947); settings: Compound concentration 1000.0 nM
[9] = target: Mast/stem cell growth factor receptor Kit (Homo sapiens) (UniProt P10721); settings: Compound concentration 1000.0 nM
Sequence of Mast/stem cell growth factor receptor Kit (Homo sapiens) (P10721 whole entry, canonical isoform): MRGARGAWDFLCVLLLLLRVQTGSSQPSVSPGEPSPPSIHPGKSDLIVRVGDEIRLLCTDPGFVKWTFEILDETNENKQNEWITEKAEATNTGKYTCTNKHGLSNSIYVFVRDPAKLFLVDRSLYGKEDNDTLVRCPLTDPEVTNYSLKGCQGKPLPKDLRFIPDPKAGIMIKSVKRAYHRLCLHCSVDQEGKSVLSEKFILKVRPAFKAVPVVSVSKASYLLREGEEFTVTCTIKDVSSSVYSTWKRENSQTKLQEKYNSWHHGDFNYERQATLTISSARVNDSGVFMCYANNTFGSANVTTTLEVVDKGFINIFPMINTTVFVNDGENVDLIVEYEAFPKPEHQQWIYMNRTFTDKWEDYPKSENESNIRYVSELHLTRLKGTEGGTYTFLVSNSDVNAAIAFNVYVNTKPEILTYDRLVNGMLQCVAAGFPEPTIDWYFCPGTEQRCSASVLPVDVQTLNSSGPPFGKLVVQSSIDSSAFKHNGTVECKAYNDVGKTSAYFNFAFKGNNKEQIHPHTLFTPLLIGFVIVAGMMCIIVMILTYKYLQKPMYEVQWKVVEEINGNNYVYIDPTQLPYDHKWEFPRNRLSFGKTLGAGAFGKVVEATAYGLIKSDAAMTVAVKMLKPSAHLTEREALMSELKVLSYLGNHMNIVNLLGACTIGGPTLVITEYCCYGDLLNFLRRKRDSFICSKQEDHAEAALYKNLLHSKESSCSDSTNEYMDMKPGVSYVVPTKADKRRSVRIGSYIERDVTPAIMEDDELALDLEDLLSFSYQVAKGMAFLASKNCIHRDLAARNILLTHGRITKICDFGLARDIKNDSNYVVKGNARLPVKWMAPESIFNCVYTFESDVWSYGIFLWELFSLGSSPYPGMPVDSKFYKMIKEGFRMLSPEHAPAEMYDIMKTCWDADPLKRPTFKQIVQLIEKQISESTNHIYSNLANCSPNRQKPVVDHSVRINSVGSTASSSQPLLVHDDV

[10] = target: Casein kinase I isoform alpha-like (Homo sapiens) (UniProt Q8N752); settings: Compound concentration 1000.0 nM
[11] = target: Tyrosine-protein kinase TXK (Homo sapiens) (UniProt P42681); settings: Compound concentration 1000.0 nM
[12] = target: Mitogen-activated protein kinase 13 (Homo sapiens) (UniProt O15264); settings: Compound concentration 1000.0 nM
Sequence of Mitogen-activated protein kinase 13 (Homo sapiens) (O15264 whole entry): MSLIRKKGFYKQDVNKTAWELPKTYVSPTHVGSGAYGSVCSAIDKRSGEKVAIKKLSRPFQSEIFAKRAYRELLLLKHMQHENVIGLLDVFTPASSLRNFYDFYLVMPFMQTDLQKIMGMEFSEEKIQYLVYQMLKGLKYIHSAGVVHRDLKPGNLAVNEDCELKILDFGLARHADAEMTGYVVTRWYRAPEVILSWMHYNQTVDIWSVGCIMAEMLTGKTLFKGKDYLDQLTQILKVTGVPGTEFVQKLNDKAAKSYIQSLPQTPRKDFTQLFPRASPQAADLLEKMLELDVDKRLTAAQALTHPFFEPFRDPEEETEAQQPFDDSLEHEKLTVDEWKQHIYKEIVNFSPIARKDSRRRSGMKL

[13] = system: Proto-oncogene tyrosine-protein kinase receptor Ret (Homo sapiens), P07949 [V804L]; settings: Compound concentration 1000.0 nM
[14] = target: Serine/threonine-protein kinase ULK2 (Homo sapiens) (UniProt Q8IYT8); settings: Compound concentration 1000.0 nM
[15] = target: Dual specificity mitogen-activated protein kinase kinase 6 (Homo sapiens) (UniProt P52564); settings: Compound concentration 1000.0 nM
[16] = target: Serine/threonine-protein kinase Nek5 (Homo sapiens) (UniProt Q6P3R8); settings: Compound concentration 1000.0 nM
[17] = target: Ephrin type-A receptor 2 (Homo sapiens) (UniProt P29317); settings: Compound concentration 1000.0 nM
[18] = target: Mast/stem cell growth factor receptor Kit (Homo sapiens) (UniProt P10721); settings: Compound concentration 1000.0 nM; remark: listed apart in the source
[19] = target: Phosphatidylinositol 4,5-bisphosphate 3-kinase catalytic subunit beta isoform (Homo sapiens) (UniProt P42338); settings: Compound concentration 1000.0 nM
[20] = target: Serine/threonine-protein kinase LATS1 (Homo sapiens) (UniProt O95835); settings: Compound concentration 1000.0 nM
[21] = target: Serine/threonine-protein kinase RIO3 (Homo sapiens) (UniProt O14730); settings: Compound concentration 1000.0 nM
Sequence of Serine/threonine-protein kinase RIO3 (Homo sapiens) (O14730 whole entry): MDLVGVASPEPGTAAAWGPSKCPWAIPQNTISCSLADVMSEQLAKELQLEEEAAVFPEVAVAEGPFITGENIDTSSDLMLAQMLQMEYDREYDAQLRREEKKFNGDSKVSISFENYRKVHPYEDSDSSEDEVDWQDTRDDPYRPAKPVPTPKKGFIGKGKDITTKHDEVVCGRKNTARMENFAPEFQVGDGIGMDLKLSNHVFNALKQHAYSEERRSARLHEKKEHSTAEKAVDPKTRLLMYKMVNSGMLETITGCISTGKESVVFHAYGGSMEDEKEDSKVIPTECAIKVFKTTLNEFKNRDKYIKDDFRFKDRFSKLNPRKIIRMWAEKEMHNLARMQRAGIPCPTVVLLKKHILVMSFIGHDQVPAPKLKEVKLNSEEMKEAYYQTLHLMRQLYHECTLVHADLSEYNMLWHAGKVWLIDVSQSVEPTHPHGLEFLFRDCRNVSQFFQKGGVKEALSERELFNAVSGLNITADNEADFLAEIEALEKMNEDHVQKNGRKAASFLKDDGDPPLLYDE

[22] = target: Serine/threonine-protein kinase PLK3 (Homo sapiens) (UniProt Q9H4B4); settings: Compound concentration 1000.0 nM
Sequence of Serine/threonine-protein kinase PLK3 (Homo sapiens) (Q9H4B4 whole entry, looked up): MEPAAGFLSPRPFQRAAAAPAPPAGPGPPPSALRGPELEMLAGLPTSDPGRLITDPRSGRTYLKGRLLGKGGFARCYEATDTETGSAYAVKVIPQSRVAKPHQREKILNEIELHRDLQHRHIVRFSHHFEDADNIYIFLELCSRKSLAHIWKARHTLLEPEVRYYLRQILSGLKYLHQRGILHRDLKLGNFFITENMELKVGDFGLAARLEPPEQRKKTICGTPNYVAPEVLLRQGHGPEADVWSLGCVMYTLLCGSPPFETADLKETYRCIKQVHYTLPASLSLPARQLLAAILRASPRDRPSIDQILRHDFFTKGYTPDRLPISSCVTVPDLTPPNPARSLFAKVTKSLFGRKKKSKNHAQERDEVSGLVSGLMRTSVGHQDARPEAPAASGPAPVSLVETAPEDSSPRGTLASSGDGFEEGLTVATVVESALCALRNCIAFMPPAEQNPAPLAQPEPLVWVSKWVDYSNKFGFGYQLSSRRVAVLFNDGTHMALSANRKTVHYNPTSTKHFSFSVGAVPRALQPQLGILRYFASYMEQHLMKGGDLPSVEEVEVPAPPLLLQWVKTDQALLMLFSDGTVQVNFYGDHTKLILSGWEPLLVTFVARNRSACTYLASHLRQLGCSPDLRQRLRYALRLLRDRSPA

[23] = target: Histamine H4 receptor (Homo sapiens) (UniProt Q9H3N8); settings: Compound concentration 10.0 uM
[24] = target: Maternal embryonic leucine zipper kinase (Homo sapiens) (UniProt Q14680); settings: Compound concentration 1000.0 nM
[25] = target: 5'-AMP-activated protein kinase catalytic subunit alpha-1 (Homo sapiens) (UniProt Q13131); settings: Compound concentration 1000.0 nM
[26] = target: Serine/threonine-protein kinase 10 (Homo sapiens) (UniProt O94804); settings: Compound concentration 1000.0 nM
[27] = target: MAP kinase-interacting serine/threonine-protein kinase 1 (Homo sapiens) (UniProt Q9BUB5); settings: Compound concentration 1000.0 nM
[28] = target: Vascular endothelial growth factor receptor 2 (Homo sapiens) (UniProt P35968); settings: Compound concentration 1000.0 nM
[29] = target: Serine/threonine-protein kinase N1 (Homo sapiens) (UniProt Q16512); settings: Compound concentration 1000.0 nM
[30] = target: Ribosomal protein S6 kinase alpha-2 (Homo sapiens) (UniProt Q15349); settings: Compound concentration 1000.0 nM
[31] = system: Epidermal growth factor receptor (Homo sapiens), P00533 [UNDEFINED MUTATION]; settings: Compound concentration 1000.0 nM
[32] = target: Serine/threonine-protein kinase VRK2 (Homo sapiens) (UniProt Q86Y07); settings: Compound concentration 1000.0 nM
[33] = target: SRSF protein kinase 1 (Homo sapiens) (UniProt Q96SB4); settings: Compound concentration 1000.0 nM
[34] = target: Cyclin-dependent kinase-like 5 (Homo sapiens) (UniProt O76039); settings: Compound concentration 1000.0 nM
[35] = target: Serine/threonine-protein kinase pim-2 (Homo sapiens) (UniProt Q9P1W9); settings: Compound concentration 1000.0 nM
[36] = target: Serine/threonine-protein kinase BRSK2 (Homo sapiens) (UniProt Q8IWQ3); settings: Compound concentration 1000.0 nM
Sequence of Serine/threonine-protein kinase BRSK2 (Homo sapiens) (Q8IWQ3 whole entry): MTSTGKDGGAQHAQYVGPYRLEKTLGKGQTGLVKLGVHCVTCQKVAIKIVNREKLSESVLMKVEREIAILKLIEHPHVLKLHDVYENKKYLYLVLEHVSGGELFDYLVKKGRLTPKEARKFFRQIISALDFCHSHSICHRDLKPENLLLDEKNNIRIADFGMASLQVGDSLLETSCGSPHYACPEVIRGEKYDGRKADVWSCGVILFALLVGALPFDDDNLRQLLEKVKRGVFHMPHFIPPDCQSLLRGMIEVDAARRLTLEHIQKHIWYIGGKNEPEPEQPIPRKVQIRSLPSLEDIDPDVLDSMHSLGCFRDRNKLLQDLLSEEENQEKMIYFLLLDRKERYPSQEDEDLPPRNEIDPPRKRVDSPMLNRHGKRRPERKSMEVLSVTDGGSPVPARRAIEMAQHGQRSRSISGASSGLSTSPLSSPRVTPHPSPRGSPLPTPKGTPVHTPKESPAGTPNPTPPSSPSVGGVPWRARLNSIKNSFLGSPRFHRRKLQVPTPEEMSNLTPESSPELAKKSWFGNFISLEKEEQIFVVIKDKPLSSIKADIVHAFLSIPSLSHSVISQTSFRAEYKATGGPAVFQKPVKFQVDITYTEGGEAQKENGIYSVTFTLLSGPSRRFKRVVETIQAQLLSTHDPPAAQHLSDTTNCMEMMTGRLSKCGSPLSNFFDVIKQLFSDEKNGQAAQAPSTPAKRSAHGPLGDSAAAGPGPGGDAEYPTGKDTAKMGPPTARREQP

[37] = target: Cyclin-dependent kinase-like 2 (Homo sapiens) (UniProt Q92772); settings: Compound concentration 1000.0 nM
[38] = target: Discoidin domain-containing receptor 2 (Homo sapiens) (UniProt Q16832); settings: Compound concentration 1000.0 nM
[39] = target: 5'-AMP-activated protein kinase catalytic subunit alpha-2 (Homo sapiens) (UniProt P54646); settings: Compound concentration 1000.0 nM
[40] = target: Serine/threonine-protein kinase 4 (Homo sapiens) (UniProt Q13043); settings: Compound concentration 1000.0 nM
Sequence of Serine/threonine-protein kinase 4 (Homo sapiens) (Q13043 whole entry): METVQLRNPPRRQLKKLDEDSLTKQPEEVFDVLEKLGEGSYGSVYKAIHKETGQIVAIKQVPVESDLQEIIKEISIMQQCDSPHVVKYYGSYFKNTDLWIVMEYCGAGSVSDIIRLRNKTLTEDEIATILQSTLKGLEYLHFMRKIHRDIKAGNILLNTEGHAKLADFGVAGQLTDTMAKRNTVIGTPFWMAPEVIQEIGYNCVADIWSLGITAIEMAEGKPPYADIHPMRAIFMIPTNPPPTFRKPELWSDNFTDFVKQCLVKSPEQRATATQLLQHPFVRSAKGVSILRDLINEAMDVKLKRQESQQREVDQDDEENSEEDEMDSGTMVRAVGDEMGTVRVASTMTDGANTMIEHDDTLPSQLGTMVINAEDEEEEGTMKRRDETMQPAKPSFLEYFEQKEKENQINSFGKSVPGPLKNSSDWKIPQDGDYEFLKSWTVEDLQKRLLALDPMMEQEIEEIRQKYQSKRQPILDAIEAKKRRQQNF

[41] = target: Insulin receptor (Homo sapiens) (UniProt P06213); settings: Compound concentration 1000.0 nM
[42] = target: Serine/threonine-protein kinase 16 (Homo sapiens) (UniProt O75716); settings: Compound concentration 1000.0 nM
[43] = target: Mitogen-activated protein kinase kinase kinase 6 (Homo sapiens) (UniProt O95382); settings: Compound concentration 1000.0 nM
[44] = target: Receptor tyrosine-protein kinase erbB-3 (Homo sapiens) (UniProt P21860); settings: Compound concentration 1000.0 nM
Sequence of Receptor tyrosine-protein kinase erbB-3 (Homo sapiens) (P21860 whole entry): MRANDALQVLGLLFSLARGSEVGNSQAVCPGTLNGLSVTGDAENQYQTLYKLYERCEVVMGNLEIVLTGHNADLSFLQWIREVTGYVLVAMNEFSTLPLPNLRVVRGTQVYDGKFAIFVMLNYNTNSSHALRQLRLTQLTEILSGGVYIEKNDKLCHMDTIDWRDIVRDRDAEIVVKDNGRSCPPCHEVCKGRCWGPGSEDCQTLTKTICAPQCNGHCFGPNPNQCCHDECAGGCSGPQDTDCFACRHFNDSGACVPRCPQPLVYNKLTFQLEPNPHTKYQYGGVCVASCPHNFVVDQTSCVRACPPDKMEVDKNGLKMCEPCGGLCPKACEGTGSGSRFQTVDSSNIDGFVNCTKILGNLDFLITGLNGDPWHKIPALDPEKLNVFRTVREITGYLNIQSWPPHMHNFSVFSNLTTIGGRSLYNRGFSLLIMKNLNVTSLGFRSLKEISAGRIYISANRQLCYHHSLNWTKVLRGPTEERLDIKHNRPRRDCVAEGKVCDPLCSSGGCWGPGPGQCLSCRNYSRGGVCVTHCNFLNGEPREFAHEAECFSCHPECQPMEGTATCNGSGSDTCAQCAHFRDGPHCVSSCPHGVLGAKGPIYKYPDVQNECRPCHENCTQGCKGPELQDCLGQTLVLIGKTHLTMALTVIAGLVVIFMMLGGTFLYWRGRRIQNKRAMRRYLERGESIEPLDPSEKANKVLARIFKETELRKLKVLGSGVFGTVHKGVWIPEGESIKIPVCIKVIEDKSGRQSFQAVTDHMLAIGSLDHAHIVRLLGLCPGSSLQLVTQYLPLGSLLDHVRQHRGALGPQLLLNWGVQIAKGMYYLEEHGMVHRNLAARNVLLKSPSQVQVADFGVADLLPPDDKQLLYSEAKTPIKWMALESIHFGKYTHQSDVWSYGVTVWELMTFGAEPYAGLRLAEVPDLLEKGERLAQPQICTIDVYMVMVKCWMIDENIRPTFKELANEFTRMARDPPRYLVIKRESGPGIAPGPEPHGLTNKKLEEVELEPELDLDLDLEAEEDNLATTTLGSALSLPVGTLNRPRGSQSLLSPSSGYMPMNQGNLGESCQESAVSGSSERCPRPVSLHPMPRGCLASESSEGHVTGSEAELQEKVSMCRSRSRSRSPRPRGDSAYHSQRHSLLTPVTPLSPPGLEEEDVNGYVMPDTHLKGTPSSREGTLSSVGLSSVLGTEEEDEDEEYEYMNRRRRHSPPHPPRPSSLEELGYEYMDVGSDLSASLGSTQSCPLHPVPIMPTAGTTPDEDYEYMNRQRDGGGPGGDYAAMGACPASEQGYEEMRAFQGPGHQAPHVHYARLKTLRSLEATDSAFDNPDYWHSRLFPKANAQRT

[45] = target: TRAF2 and NCK-interacting protein kinase (Homo sapiens) (UniProt Q9UKE5); settings: Compound concentration 1000.0 nM

CN([C@@H]1CCc2c(CC(=O)O)c3cc(S(C)(=O)=O)ccc3n2C1)S(=O)(=O)c1ccc(F)cc1
inactive: residual activity [1] 71% | residual activity [2] 100% | residual activity [3] 100% | residual activity [4] 100% | residual activity [5] 100% | residual activity [6] 100% | residual activity [7] 91% | residual activity [8] 88% | residual activity [9] 89% | residual activity [10] 94% | residual activity [11] 74% | residual activity [12] 68% | residual activity [13] 100% | residual activity [14] 100% | residual activity [15] 100% | residual activity [16] 100% | residual activity [17] 100% | residual activity [18] 86% | residual activity [19] 100% | residual activity [20] 61% | residual activity [21] 94% | residual activity [22] 70% | inhibition [23] 16% | residual activity [24] 84% | residual activity [25] 85% | residual activity [26] 100% | residual activity [27] 86% | residual activity [28] 85% | residual activity [29] 90% | residual activity [30] 100% | residual activity [31] 80% | residual activity [32] 94% | residual activity [33] 100% | residual activity [34] 93% | residual activity [35] 100% | residual activity [36] 100% | residual activity [37] 100% | residual activity [38] 88% | residual activity [39] 100% | residual activity [40] 97% | residual activity [41] 100% | residual activity [42] 95% | residual activity [43] 89% | residual activity [44] 100% | residual activity [45] 100%

CN([C@@H]1CCc2c(CC(=O)O)c3ccccc3n2C1)S(=O)(=O)c1ccc(F)cc1 [MK-7246]
inactive: residual activity [1] 79% | residual activity [2] 82% | residual activity [3] 100% | residual activity [4] 100% | residual activity [5] 100% | residual activity [6] 100% | residual activity [7] 93% | residual activity [8] 100% | residual activity [9] 96% | residual activity [10] 100% | residual activity [11] 93% | residual activity [12] 91% | residual activity [13] 99% | residual activity [14] 100% | residual activity [15] 100% | residual activity [16] 100% | residual activity [17] 100% | residual activity [18] 100% | residual activity [19] 88% | residual activity [20] 69% | residual activity [21] 100% | residual activity [22] 85% | inhibition [23] 25.9% | residual activity [24] 93% | residual activity [25] 100% | residual activity [26] 100% | residual activity [27] 93% | residual activity [28] 82% | residual activity [29] 83% | residual activity [30] 100% | residual activity [31] 95% | residual activity [32] 100% | residual activity [33] 100% | residual activity [34] 74% | residual activity [35] 100% | residual activity [36] 100% | residual activity [37] 100% | residual activity [38] 98% | residual activity [39] 100% | residual activity [40] 98% | residual activity [41] 100% | residual activity [42] 99% | residual activity [43] 80% | residual activity [44] 100% | residual activity [45] 79%
